Experimental data from ChEMBL document CHEMBL1201862, “PubChem BioAssay data set” (2004).
Calls of active or inactive are those of the source. Cut-off read from the data, not from the text of the source: actives have a measured IC50 and inactives only a lower limit.

These molecules were tested against Envelope glycoprotein gp160 (Human immunodeficiency virus 1, UniProt Q6QLK5) (assay: inhibitors of HIV fusion peptide binding, primary screen, biochemical, uHTS, fluorescence dequenching (AID 1986)).
Chain of Envelope glycoprotein gp160 (Q6QLK5 whole entry, the tested form may be a part): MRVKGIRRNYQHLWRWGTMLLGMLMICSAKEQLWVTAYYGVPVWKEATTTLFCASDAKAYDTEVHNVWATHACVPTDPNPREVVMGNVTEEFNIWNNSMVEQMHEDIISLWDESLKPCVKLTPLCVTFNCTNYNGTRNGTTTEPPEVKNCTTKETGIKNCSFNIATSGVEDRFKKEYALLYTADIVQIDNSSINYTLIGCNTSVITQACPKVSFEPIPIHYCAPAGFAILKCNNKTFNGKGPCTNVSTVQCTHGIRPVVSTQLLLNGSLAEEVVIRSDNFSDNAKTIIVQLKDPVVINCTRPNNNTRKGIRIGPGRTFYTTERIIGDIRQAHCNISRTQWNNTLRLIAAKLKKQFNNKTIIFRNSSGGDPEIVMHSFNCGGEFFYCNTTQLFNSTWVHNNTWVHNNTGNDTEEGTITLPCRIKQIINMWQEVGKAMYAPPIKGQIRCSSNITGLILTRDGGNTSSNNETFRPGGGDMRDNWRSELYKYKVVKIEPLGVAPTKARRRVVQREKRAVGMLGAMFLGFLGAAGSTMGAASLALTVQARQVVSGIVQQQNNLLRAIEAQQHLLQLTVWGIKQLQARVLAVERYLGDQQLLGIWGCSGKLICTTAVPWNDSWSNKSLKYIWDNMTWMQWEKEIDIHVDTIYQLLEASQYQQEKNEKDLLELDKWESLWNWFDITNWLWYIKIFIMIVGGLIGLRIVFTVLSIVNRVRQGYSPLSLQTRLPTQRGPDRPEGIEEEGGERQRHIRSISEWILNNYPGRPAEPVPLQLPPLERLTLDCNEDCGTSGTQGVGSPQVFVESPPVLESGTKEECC
In the case of `COc1cc(NS(=O)(=O)c2ccc(NC(=S)NC(=O)c3sc4ccccc4c3Cl)cc2)nc(OC)n1`, the IC50 is reported as 16.5 µM (active). In the case of `O=C(COc1ccc(Cl)cc1Cl)Nc1ccc(C(=O)Nc2ccccc2C(=O)O)cc1`, the IC50 is reported as 9.54 µM (active). For `CC(C)S(=O)(=O)C1=NSC2=NC(=O)/C(=C\c3ccc(-c4cccc(C(=O)O)c4)o3)C(=N)N21`, the IC50 was 18.3 µM (active). With `CCCCCC#CCC#CCC#CCC#CCCCC(=O)O` the IC50 was 11.9 µM (active).
